The IC50 is the point on the concentration scale where inhibition reaches its midpoint. A low value points to inhibition by little substance. In general, logD refers to lipophilicity at a set pH, counting ionised and neutral species. Higher therefore signals a more lipophilic compound. For orientation: clearance means the rate of elimination divided by the concentration. In general, bioavailability refers to dose-corrected exposure relative to a reference, in per cent. Low values mean little systemic uptake, high ones much systemic uptake.

Active and inactive are the calls of the source. The rule behind the calls is not given here. Some results are limits rather than exact numbers.

This note sets out measurements from ChEMBL document CHEMBL1138105, “Highly potent and selective zwitterionic agonists of the delta-opioid receptor. Part 1” (Bioorg Med Chem Lett, 2006).

Delta-type opioid receptor (Mus musculus, UniProt P32300), sequence (P32300 whole entry): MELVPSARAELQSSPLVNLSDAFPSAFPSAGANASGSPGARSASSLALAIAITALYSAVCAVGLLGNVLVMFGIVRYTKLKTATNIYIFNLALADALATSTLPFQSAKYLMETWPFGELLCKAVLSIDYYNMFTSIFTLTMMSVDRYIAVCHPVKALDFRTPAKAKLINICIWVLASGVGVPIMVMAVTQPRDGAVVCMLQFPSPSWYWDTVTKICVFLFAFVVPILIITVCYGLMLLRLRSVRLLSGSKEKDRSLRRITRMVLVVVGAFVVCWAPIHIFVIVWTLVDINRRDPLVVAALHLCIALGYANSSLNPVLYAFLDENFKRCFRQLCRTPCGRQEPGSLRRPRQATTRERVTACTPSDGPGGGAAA
Mu-type opioid receptor, sequence (P97266 whole entry): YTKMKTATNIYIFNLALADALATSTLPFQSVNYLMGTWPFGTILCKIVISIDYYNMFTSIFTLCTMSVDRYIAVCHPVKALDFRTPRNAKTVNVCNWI
Kappa-type opioid receptor, sequence (P41144 whole entry): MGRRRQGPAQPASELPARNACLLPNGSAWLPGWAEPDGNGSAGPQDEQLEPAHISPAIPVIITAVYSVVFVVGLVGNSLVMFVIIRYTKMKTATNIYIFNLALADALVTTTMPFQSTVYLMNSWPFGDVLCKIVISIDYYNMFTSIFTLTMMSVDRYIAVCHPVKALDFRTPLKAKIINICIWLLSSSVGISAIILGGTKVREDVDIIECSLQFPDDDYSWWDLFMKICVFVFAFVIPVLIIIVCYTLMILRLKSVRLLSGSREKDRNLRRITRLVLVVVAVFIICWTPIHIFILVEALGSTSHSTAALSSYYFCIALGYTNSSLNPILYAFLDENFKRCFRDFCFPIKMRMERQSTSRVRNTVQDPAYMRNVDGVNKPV

For the first data set, the target named is Delta-type opioid receptor (Homo sapiens, UniProt P41143). Nature of the data set: Binding affinity at human delta opioid receptor expressed in CHO cells. The class given is cell-based, Cricetulus griseus.
Delta-type opioid receptor (Homo sapiens, UniProt P41143), sequence (P41143 whole entry): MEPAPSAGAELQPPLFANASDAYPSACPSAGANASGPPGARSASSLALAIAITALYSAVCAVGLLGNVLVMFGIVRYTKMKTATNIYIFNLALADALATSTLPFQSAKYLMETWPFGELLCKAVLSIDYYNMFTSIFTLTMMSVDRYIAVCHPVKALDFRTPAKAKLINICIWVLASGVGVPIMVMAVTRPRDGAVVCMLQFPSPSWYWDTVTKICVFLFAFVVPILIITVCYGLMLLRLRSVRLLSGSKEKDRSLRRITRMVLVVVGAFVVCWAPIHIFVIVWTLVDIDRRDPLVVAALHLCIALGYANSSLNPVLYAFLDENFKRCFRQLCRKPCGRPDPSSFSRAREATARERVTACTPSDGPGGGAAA
Settings: not given
With `COc1cccc([C@@H](c2ccc3c(c2)CN(CC(=O)O)CC3)N2C[C@@H](C)N(Cc3ccccc3)C[C@@H]2C)c1`, the IC50 was 5.01 nM.

The next data set concerns the target Delta-type opioid receptor (Mus musculus, UniProt P32300).
Settings: not given
In turn, `COc1cccc([C@@H](c2ccc3c(c2)CN(CC(=O)O)CC3)N2C[C@@H](C)N(Cc3ccccc3)C[C@@H]2C)c1` had an IC50 of 2 nM.
As to `COc1cccc([C@@H](c2ccc3c(c2)CN(CC(=O)O)C3)N2C[C@@H](C)N(Cc3ccccc3)C[C@@H]2C)c1`, the IC50 is 25.1 nM.
Molecule `COc1cccc([C@@H](c2ccc3c(c2)CN(CCC(=O)O)C3)N2C[C@@H](C)N(Cc3ccccc3)C[C@@H]2C)c1` had an IC50 of 631 nM.
As for `C[C@@H]1CN([C@@H](c2cccc(F)c2)c2ccc3c(c2)CN(C(=O)CC(=O)O)CC3)[C@@H](C)CN1Cc1ccccc1`, the IC50 was 20 nM.
`C[C@@H]1CN([C@@H](c2cccc(O)c2)c2ccc3c(c2)CN(Cc2ccccc2C(=O)O)C3)[C@@H](C)CN1Cc1ccccc1` gave an IC50 of 3.16 nM.
The same measure, in the same setting: next, `COc1cccc([C@@H](c2ccc3c(c2)CN(C(=O)CC(=O)O)CC3)N2C[C@@H](C)N(Cc3ccccc3)C[C@@H]2C)c1`: 15.8 nM.
Regarding `C[C@@H]1CN([C@@H](c2cccc(O)c2)c2ccc3c(c2)CN(CC(=O)O)CC3)[C@@H](C)CN1Cc1ccccc1`, half-maximal inhibition (IC50) was put at 0.0398 nM.
Still for that read-out and setting: with `C[C@@H]1CN([C@H](c2ccc(-c3ccccc3C(=O)O)cc2)c2cccc(O)c2)[C@@H](C)CN1Cc1ccccc1` the figure was 0.02 nM; with `C=CCN1C[C@H](C)N([C@H](c2ccc(C(=O)N(CC)CC)cc2)c2cccc(O)c2)C[C@H]1C`, 0.631 nM; with `C[C@@H]1CN([C@@H](c2cccc(F)c2)c2ccc3c(c2)CN(CCC(=O)O)CC3)[C@@H](C)CN1Cc1ccccc1`, 100 nM.
The same measure, in the same setting: with `C[C@@H]1CN([C@H](c2ccc(CC(=O)O)cc2)c2cccc(O)c2)[C@@H](C)CN1Cc1ccccc1` the figure was 0.158 nM; with `C[C@@H]1CN([C@@H](c2cccc(O)c2)c2ccc3c(c2)CN(CC(=O)O)C3)[C@@H](C)CN1Cc1ccccc1`, 0.501 nM.
Take `C[C@@H]1CN([C@@H](c2cccc(O)c2)c2ccc3c(c2)CN(CCC(=O)O)CC3)[C@@H](C)CN1Cc1ccccc1`: the IC50 was 0.00501 nM.
In turn, `C[C@@H]1CN([C@H](c2ccc(CCC(=O)O)cc2)c2cccc(O)c2)[C@@H](C)CN1Cc1ccccc1` had an IC50 of 0.126 nM.
Same read-out and setting: with `C[C@@H]1CN([C@@H](c2cccc(O)c2)c2ccc3c(c2)CN(C(=O)c2cccc(C(=O)O)c2)C3)[C@@H](C)CN1Cc1ccccc1` the figure was 1.58 nM.
In the case of `C[C@@H]1CN([C@@H](c2cccc(O)c2)c2ccc3c(c2)CN(C(=O)c2ccccc2C(=O)O)C3)[C@@H](C)CN1Cc1ccccc1`, 0.316 nM corresponded to half-maximal inhibition (IC50).
The same measure, in the same setting: with `C[C@@H]1CN([C@@H](c2ccccc2)c2ccc3c(c2)CN(CCC(=O)O)C3)[C@@H](C)CN1Cc1ccccc1` the figure was 63.1 nM.
On the same count and under the same terms, with `C[C@@H]1CN([C@@H](c2cccc(O)c2)c2ccc3c(c2)CN(C(=O)CC(=O)O)CC3)[C@@H](C)CN1Cc1ccccc1` the figure was 0.001 nM.
Same read-out and setting: with `C[C@@H]1CN([C@@H](c2cccc(O)c2)c2ccc3c(c2)CN(CCC(=O)O)C3)[C@@H](C)CN1Cc1ccccc1` the figure was 1 nM.
In turn, `C[C@@H]1CN([C@@H](c2cccc(F)c2)c2ccc3c(c2)CN(CCC(=O)O)C3)[C@@H](C)CN1Cc1ccccc1` gave an IC50 of 25.1 nM.
`COc1cccc([C@@H](c2ccc3c(c2)CN(CCC(=O)O)CC3)N2C[C@@H](C)N(Cc3ccccc3)C[C@@H]2C)c1` showed an IC50 of 12.6 nM.
On to `C[C@@H]1CN([C@@H](c2cccc(O)c2)c2ccc3c(c2)CN(C(=O)C(=O)O)CC3)[C@@H](C)CN1Cc1ccccc1`, for which it took 0.00158 nM to reach half-maximal inhibition (IC50).

The next data set concerns the target Kappa-type opioid receptor (Cavia porcellus, UniProt P41144). Nature of the data set: Agonist activity at kappa opioid receptor in myenteric plexus muscle from guinea pig. It counts as functional.
Settings: not given
`COc1cccc([C@@H](c2ccc3c(c2)CN(CC(=O)O)CC3)N2C[C@@H](C)N(Cc3ccccc3)C[C@@H]2C)c1` showed an IC50 of 1260 nM.
On the same count and under the same terms, next, `COc1cccc([C@@H](c2ccc3c(c2)CN(CCC(=O)O)C3)N2C[C@@H](C)N(Cc3ccccc3)C[C@@H]2C)c1`: greater than 10000 nM; `C[C@@H]1CN([C@@H](c2cccc(O)c2)c2ccc3c(c2)CN(CC(=O)O)CC3)[C@@H](C)CN1Cc1ccccc1`: 1000 nM.
Still for that read-out and setting: with `C[C@@H]1CN([C@@H](c2cccc(O)c2)c2ccc3c(c2)CN(CC(=O)O)C3)[C@@H](C)CN1Cc1ccccc1` the figure was 1260 nM; with `C[C@@H]1CN([C@@H](c2cccc(O)c2)c2ccc3c(c2)CN(CCC(=O)O)CC3)[C@@H](C)CN1Cc1ccccc1`, 5010 nM; with `C[C@@H]1CN([C@@H](c2cccc(O)c2)c2ccc3c(c2)CN(C(=O)c2cccc(C(=O)O)c2)C3)[C@@H](C)CN1Cc1ccccc1`, 1260 nM.
The molecule `C[C@@H]1CN([C@@H](c2cccc(O)c2)c2ccc3c(c2)CN(C(=O)c2ccccc2C(=O)O)C3)[C@@H](C)CN1Cc1ccccc1` had an IC50 of 3980 nM.
Same read-out and setting: next, `C[C@@H]1CN([C@@H](c2cccc(O)c2)c2ccc3c(c2)CN(C(=O)CC(=O)O)CC3)[C@@H](C)CN1Cc1ccccc1`: 398 nM; `C[C@@H]1CN([C@@H](c2cccc(O)c2)c2ccc3c(c2)CN(CCC(=O)O)C3)[C@@H](C)CN1Cc1ccccc1`: 7940 nM; `C=CCN1C[C@H](C)N([C@H](c2ccc(C(=O)N(CC)CC)cc2)c2cccc(OC)c2)C[C@H]1C` [SNC-80]: 1260 nM.
Same read-out and setting: next, `COc1cccc([C@@H](c2ccc3c(c2)CN(CCC(=O)O)CC3)N2C[C@@H](C)N(Cc3ccccc3)C[C@@H]2C)c1`: 1000 nM.
Still for that read-out and setting: with `C[C@@H]1CN([C@@H](c2cccc(O)c2)c2ccc3c(c2)CN(C(=O)C(=O)O)CC3)[C@@H](C)CN1Cc1ccccc1` the figure was 398 nM.

System in a further data set: not listed separately
Nature of the data set: Distribution coefficient of the compound, log D at pH 7.4. The class given is physicochemical. Particulars: octanol/water.
The molecule `COc1cccc([C@@H](c2ccc3c(c2)CN(CC(=O)O)CC3)N2C[C@@H](C)N(Cc3ccccc3)C[C@@H]2C)c1` returned a logD of 2.5.
Still for that read-out and setting: next, `COc1cccc([C@@H](c2ccc3c(c2)CN(C(=O)CC(=O)O)CC3)N2C[C@@H](C)N(Cc3ccccc3)C[C@@H]2C)c1`: 1.3; `C[C@@H]1CN([C@@H](c2cccc(O)c2)c2ccc3c(c2)CN(CC(=O)O)CC3)[C@@H](C)CN1Cc1ccccc1`: 2.1; `C[C@@H]1CN([C@H](c2ccc(-c3ccccc3C(=O)O)cc2)c2cccc(O)c2)[C@@H](C)CN1Cc1ccccc1`: 2.3.
On the same count and under the same terms, with `C[C@@H]1CN([C@H](c2ccc(CC(=O)O)cc2)c2cccc(O)c2)[C@@H](C)CN1Cc1ccccc1` the figure was 1.1; with `C[C@@H]1CN([C@@H](c2cccc(O)c2)c2ccc3c(c2)CN(CCC(=O)O)CC3)[C@@H](C)CN1Cc1ccccc1`, 2.1; with `C[C@@H]1CN([C@H](c2ccc(CCC(=O)O)cc2)c2cccc(O)c2)[C@@H](C)CN1Cc1ccccc1`, 2.1.
The molecule `C[C@@H]1CN([C@@H](c2cccc(O)c2)c2ccc3c(c2)CN(C(=O)CC(=O)O)CC3)[C@@H](C)CN1Cc1ccccc1` returned a logD of 0.4.
The same measure, in the same setting: with `COc1cccc([C@@H](c2ccc3c(c2)CN(CCC(=O)O)CC3)N2C[C@@H](C)N(Cc3ccccc3)C[C@@H]2C)c1` the figure was 2.3; with `C[C@@H]1CN([C@@H](c2cccc(O)c2)c2ccc3c(c2)CN(C(=O)C(=O)O)CC3)[C@@H](C)CN1Cc1ccccc1`, 1.6.

System in a further data set: not listed separately
Nature of the data set: Plasma clearance in dog.
Settings: not given
The class given is ADME, organism-based, Canis lupus familiaris.
Molecule `COc1cccc([C@@H](c2ccc3c(c2)CN(CC(=O)O)CC3)N2C[C@@H](C)N(Cc3ccccc3)C[C@@H]2C)c1` registered a clearance of 17 mL/min/kg.

A further data set has as its system Mus musculus. Nature of the data set: Effect on locomotor activity in mouse hyper locomotion model at 100 ug/kg, iv.
Settings: not given
It counts as functional, organism-based.
As for `C[C@@H]1CN([C@H](c2ccc(CCC(=O)O)cc2)c2cccc(O)c2)[C@@H](C)CN1Cc1ccccc1`, the result was Active.

System in the next data set: not listed separately
Nature of the data set: Volume of distribution in dog. The class given is ADME, organism-based, Canis lupus familiaris. Particulars: in vivo, read-out: Vdss.
As to `COc1cccc([C@@H](c2ccc3c(c2)CN(CC(=O)O)CC3)N2C[C@@H](C)N(Cc3ccccc3)C[C@@H]2C)c1`, the Vd was 5.4 L/kg.

For the next data set, the system named is Mus musculus. Nature of the data set: Effect on locomotor activity in mouse hyper locomotion model at 400 ug/kg, iv. It counts as functional, organism-based.
Settings: not given
Take `C=CCN1C[C@H](C)N([C@H](c2ccc(C(=O)N(CC)CC)cc2)c2cccc(OC)c2)C[C@H]1C` [SNC-80]: the outcome was Active.

System in another data set: not listed separately
Nature of the data set: Oral bioavailability in dog. Particulars: in vivo. The class given is ADME, organism-based, Canis lupus familiaris.
On to `COc1cccc([C@@H](c2ccc3c(c2)CN(CC(=O)O)CC3)N2C[C@@H](C)N(Cc3ccccc3)C[C@@H]2C)c1`, for which the bioavailability was found to be 20%.

The next data set addresses Mu-type opioid receptor (Cavia porcellus, UniProt P97266). Nature of the data set: Agonist activity at mu opioid receptor in myenteric plexus muscle from guinea pig. It counts as functional.
Settings: not given
Regarding `COc1cccc([C@@H](c2ccc3c(c2)CN(CC(=O)O)CC3)N2C[C@@H](C)N(Cc3ccccc3)C[C@@H]2C)c1`, the IC50 was 5010 nM.
Same read-out and setting: with `COc1cccc([C@@H](c2ccc3c(c2)CN(CCC(=O)O)C3)N2C[C@@H](C)N(Cc3ccccc3)C[C@@H]2C)c1` the figure was greater than 10000 nM.
For the molecule `C[C@@H]1CN([C@@H](c2cccc(O)c2)c2ccc3c(c2)CN(CC(=O)O)CC3)[C@@H](C)CN1Cc1ccccc1`, the IC50 is 316 nM.
Consider `C[C@@H]1CN([C@@H](c2cccc(O)c2)c2ccc3c(c2)CN(CC(=O)O)C3)[C@@H](C)CN1Cc1ccccc1`, for which the IC50 is 126 nM.
Regarding `C[C@@H]1CN([C@@H](c2cccc(O)c2)c2ccc3c(c2)CN(CCC(=O)O)CC3)[C@@H](C)CN1Cc1ccccc1`, the IC50 was 1000 nM.
Still for that read-out and setting: next, `C[C@@H]1CN([C@@H](c2cccc(O)c2)c2ccc3c(c2)CN(C(=O)c2cccc(C(=O)O)c2)C3)[C@@H](C)CN1Cc1ccccc1`: 100 nM.
Still for that read-out and setting: with `C[C@@H]1CN([C@@H](c2cccc(O)c2)c2ccc3c(c2)CN(C(=O)c2ccccc2C(=O)O)C3)[C@@H](C)CN1Cc1ccccc1` the figure was 50.1 nM; with `C[C@@H]1CN([C@@H](c2cccc(O)c2)c2ccc3c(c2)CN(C(=O)CC(=O)O)CC3)[C@@H](C)CN1Cc1ccccc1`, 200 nM.
On the same count and under the same terms, with `C[C@@H]1CN([C@@H](c2cccc(O)c2)c2ccc3c(c2)CN(CCC(=O)O)C3)[C@@H](C)CN1Cc1ccccc1` the figure was 631 nM; with `C=CCN1C[C@H](C)N([C@H](c2ccc(C(=O)N(CC)CC)cc2)c2cccc(OC)c2)C[C@H]1C` [SNC-80], greater than 10000 nM.
`COc1cccc([C@@H](c2ccc3c(c2)CN(CCC(=O)O)CC3)N2C[C@@H](C)N(Cc3ccccc3)C[C@@H]2C)c1` showed an IC50 greater than 10000 nM.
The same measure, in the same setting: with `C[C@@H]1CN([C@@H](c2cccc(O)c2)c2ccc3c(c2)CN(C(=O)C(=O)O)CC3)[C@@H](C)CN1Cc1ccccc1` the figure was 200 nM.

Another data set deals with Mus musculus. Kind of data set: Effect on locomotor activity in mouse hyper locomotion model at 1000 ug/kg, iv.
Settings: not given
The class given is functional, organism-based.
On to `C[C@@H]1CN([C@H](c2ccc(CC(=O)O)cc2)c2cccc(O)c2)[C@@H](C)CN1Cc1ccccc1`, for which the outcome was Active.
